Assay results reported in patent publication US4668397A, “Novel cyclic octapeptide, method for production of said octapeptide, and ion extracting/separating agent using said octapeptide as principal component” (Agency of Industrial Science & Technology, priority 1984, dated 1987).
Non-standard residues stand in square brackets, D forms with d. Residues, ends and D or L forms follow the SMILES beside them. *: point of attachment. Orn = NCCC[C@H](N)C(=O)O; Cbz = O=C(OCc1ccccc1)*; Boc = CC(C)(C)OC(=O)*; OBn = c1ccc(CO*)cc1; Sar = CNCC(=O)O

How the values were obtained:
[1] = Ion transfer through chloroform phase between two water phases in a U-shaped tube; conditions: for Amount of ions transferred: K, 200 μM in chloroform phase, pH 7.5, 10 hours; for transferring ability for potassium ion: from Table 2
Procedure: (§1) In a U-shaped tube 15 mm in inside diameter, two water phases (a), (b) (each 10 ml) were separated by an intervening chloroform phase (15 ml). In the water phase (a), a chloride of potassium ions and calcium ions (10 mM), picric acid (25 mM), and good buffer HEPES (10 mM) were dissolved and adjusted to pH 7.5 with lithium hydroxide. In the chloroform phase, the compound of this invention was dissolved in a concentration of 200 μM. The two water phases (a), (b) were stirred with a mechanical stirrer and the chloroform phase was stirred with a magnetic stirrer. After 10 hours of stirring, the amount of potassium ions or calcium ions which had been transferred from the water phase (a) through the chloroform phase into the water phase (b) was determined based on the absorption of picrate anion. For comparison, the procedure described above was repeated by using a naturally occurring calcium-ion ionophore A 23187, the cyclic tetrapeptide, i.e. cyclo(glycyl-ε-benzyloxycarbonyl-L-lysyl-sarcosyl-L-prolyl) (D-1), the linear octapeptide, i.e. tertiary butyloxycarbonylglycyl-ε-benzyloxycarbonyl-L-lysyl-sarcosyl-L-propyl-glycyl-ε-benzyloxycarbonyl-L-lysyl-sarcosyl-L-proline methyl ester (E-1), and using no substance dissolved in the chloroform phase.

[2] = Ion transfer through chloroform phase (liquid membrane) between two water phases in a U-shaped tube; conditions: for Amount of ions transferred: Ca^2+, 200 μM in chloroform phase, pH 7.5, 10 hours; for transferring ability for calcium ion: from Table 2
Procedure: as §1

[3] = Extraction equilibrium constant, chloroform / aqueous metal ion chloride and picric acid, absorbance of picrate anion; conditions: chloroform/water, pH 7.4, average of five concentrations
Procedure: The compound (C-1) of this invention obtained in Example 1 was dissolved in concentrations of […] in chloroform. Then 5-ml portions of each of the five solutions so prepared were mixed one each with 5-ml aqueous solutions (pH 7.4) of metallic ion chloride (10 mM), picric acid (25 mM), and good buffer HEPES (10 mM) and shaken for 30 minutes. The shaken mixtures were left stading for one hour. Then, based on the absorbance of picrate anion in the chloroform phase, the extraction equilibrium constants of the compound (C-1) of this invention for the various ions were determined. The results so obtained were compared with those of the comparative cyclic tetrapeptide, i.e. cyclo(glycyl-ε-benzyloxycarbonyl-L-lysyl-sarcosyl-L-prolyl) (D-1), and the linear octapeptide, i.e. tertiary butyloxycarbonylglycyl-ε-benzyloxycarbonyl-L-lysyl-sarcosyl-L-prolylglycyl-ε-benzyloxycarbonyl-[…]-L-proline methyl ester (E-1).
The results expressed as logarithms of the average values obtained by using the five chloroform solutions of varying concentration are shown in Table 1.

[4] = Solution extraction and recovery of calcium ion; conditions: 1 g compound in 100 ml chloroform; sample pH 6.9; back-extraction with 2M ammonium chloride and 2M hydrochloric acid
Procedure: (§2) The amount 100 ml of chloroform solution having dissolved therein 1 g of the compound (C-1) of this invention obtained in Example 1 and 100 ml of a sample solution containing 1 g of magnesium picrate and 100 mg of […] (adjusted to pH 6.9 with acetic acid and sodium acetate) were thoroughly shaken and then left standing for 30 minutes. From the resultant mixture, the chloroform phase was collected. The chloroform phase was washed with 100 ml of an aqueous solution containing 0.01M of lithium picrate (adjusted to pH 6.9 with acetic acid and sodium acetate), followed by collection of chloroform phase. This washing operation was repeated three times to collect the chloroform phase. This chloroform phase was thoroughly shaken with 100 ml of an aqueous solution containing 2M of ammonium chloride and 2M of hydrochloric acid. The shaken mixture was left standing at rest for 30 minutes, followed by collection of the aqueous phase. The aqueous phase was tested for recovery of calcium ion. […] At that time, the concentration of magnesium was 10^-3 times the initial concentration. Thus, by the method of solution extraction using the compound of this invention, calcium ions could be efficiently separated from a large amount of magnesium ions.

[5] = Solution extraction, separation from magnesium; conditions: after extraction and recovery of calcium ion; sample with 1 g magnesium picrate
Procedure: as §2

Row | Compound | Amount of ions transferred [1] [μ · mol] | Amount of ions transferred [2] [μ · mol] | Logarithm of ion extraction equilibrium constant ([3]; Ba^2+) | Logarithm of ion extraction equilibrium constant ([3]; Ca^2+) | Logarithm of ion extraction equilibrium constant ([3]; K^+) | Logarithm of ion extraction equilibrium constant ([3]; Mg^2+) | Logarithm of ion extraction equilibrium constant ([3]; Na^+) | Logarithm of ion extraction equilibrium constant ([3]; Rb^+) | transferring ability for potassium ion [1] | transferring ability for calcium ion [2] | recovery ratio of calcium ion [4] [%] | concentration of magnesium relative to the initial concentration [5]
1 | CN1CC(=O)N2CCC[C@H]2C(=O)NCC(=O)N[C@@H](CC(=O)OCc2ccccc2)C(=O)N(C)CC(=O)N2CCC[C@H]2C(=O)NCC(=O)N[C@@H](CC(=O)OCc2ccccc2)C1=O [Compound C-4, cyclo(glycyl-β-benzyl-L-aspartylsarcosyl-L-prolyl)2] (cyclo(D(OBn)[Sar]PGD(OBn)[Sar]PG)) | 0.3 | 4.8 |  |  |  |  |  |  |  |  |  | 
2 | CN1CC(=O)N2CCC[C@H]2C(=O)NCC(=O)N[C@@H](CCCNC(=O)OCc2ccccc2)C(=O)N(C)CC(=O)N2CCC[C@H]2C(=O)NCC(=O)N[C@@H](CCCNC(=O)OCc2ccccc2)C1=O [Compound C-2, cyclo(glycyl-δ-benzyloxycarbonyl-L-ornithyl-sarcosyl-L-prolyl)2] (cyclo(G[Orn](Cbz)[Sar]PG[Orn](Cbz)[Sar]P)) | 0.4 | 5.1 |  |  |  |  |  |  |  |  |  | 
3 | COC(=O)[C@@H]1CCCN1C(=O)CN(C)C(=O)[C@H](CCCCNC(=O)OCc1ccccc1)NC(=O)CNC(=O)[C@@H]1CCCN1C(=O)CN(C)C(=O)[C@H](CCCCNC(=O)OCc1ccccc1)NC(=O)CNC(=O)OC(C)(C)C [Compound E-1, tertiary butyloxycarbonylglycyl-ε-benzyloxycarbonyl-L-lysyl-sarcosyl-L-propyl-glycyl-ε-benzyloxycarbonyl-L-lysyl-sarcosyl-L-proline methyl ester] (Boc-GK(Cbz)[Sar]PGK(Cbz)[Sar]P-OMe) | 0.2 | 0.3 | 1.3 | 1.1 | 0.9 | 0.9 | 0.9 | 0.9 | virtually no transferring ability | virtually no transferring ability |  | 
4 | CN1CC(=O)N2CCC[C@H]2C(=O)NCC(=O)N[C@@H](CCCCNC(=O)OCc2ccccc2)C(=O)N(C)CC(=O)N2CCC[C@H]2C(=O)NCC(=O)N[C@@H](CCCCNC(=O)OCc2ccccc2)C1=O [Compound C-1, cyclo(glycyl-ε-benzyloxycarbonyl-L-lysyl-sarcosyl-L-prolyl)2] (cyclo(GK(Cbz)[Sar]PGK(Cbz)[Sar]P)) | 0.5 | 5.4 | 6.0 | 5.6 | 2.6 | 3.4 | 2.3 | 2.6 |  |  | 95 | 10^-3 times the initial concentration
5 | CNc1ccc2oc(C[C@H]3O[C@@]4(CC[C@H]3C)O[C@H]([C@H](C)C(=O)c3ccc[nH]3)[C@H](C)C[C@H]4C)nc2c1C(=O)O [Compound A23187] | 0.1 | 4.7 |  |  |  |  |  |  |  |  |  | 
6 | CN1CC(=O)N2CCC[C@H]2C(=O)NCC(=O)N[C@@H](CCCCNC(=O)OCc2ccccc2)C1=O [Compound D-1, cyclo(glycyl-ε-benzyloxycarbonyl-L-lysyl-sarcosyl-L-prolyl)] (cyclo(GK(Cbz)[Sar]P)) | 0.1 | 0.4 | 1.9 | 1.7 | 1.2 | 1.2 | 1.1 | 1.2 | virtually no transferring ability | virtually no transferring ability |  | 
7 | CN1CC(=O)N2CCC[C@H]2C(=O)NCC(=O)N[C@@H](CCC(=O)OCc2ccccc2)C(=O)N(C)CC(=O)N2CCC[C@H]2C(=O)NCC(=O)N[C@@H](CCC(=O)OCc2ccccc2)C1=O [Compound C-3, cyclo(glycyl-γ-benzyl-L-glutamylsarcosyl-L-prolyl)2] (cyclo(E(OBn)[Sar]PGE(OBn)[Sar]PG)) | 0.3 | 4.9 |  |  |  |  |  |  |  |  |  | 
